Paper PMC10226132, “First-in-Class Selective Inhibitors of the Lysine Acetyltransferase KAT8” (Journal of Medicinal Chemistry, 2023)

Molecular target: T1, KAT8 (Homo sapiens, UniProt Q9H7Z6)
T1 construct: using the previously purified KAT8 (173–458, 5 nM); 6xHis tag with TEV protease cleavage site (N, cleaved yes); made in house; host or cells: E. coli BL21(DE3)
T1 sequence (Q9H7Z6 173-458): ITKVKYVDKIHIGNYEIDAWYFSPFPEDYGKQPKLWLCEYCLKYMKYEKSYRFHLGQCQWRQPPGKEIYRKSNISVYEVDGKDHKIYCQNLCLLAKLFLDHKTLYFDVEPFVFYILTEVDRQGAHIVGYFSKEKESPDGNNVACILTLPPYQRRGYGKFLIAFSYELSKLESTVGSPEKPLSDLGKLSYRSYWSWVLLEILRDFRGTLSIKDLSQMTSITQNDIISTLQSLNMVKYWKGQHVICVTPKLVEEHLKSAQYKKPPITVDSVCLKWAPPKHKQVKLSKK
Test: Radioactive KAT8 inhibition assay
Assay type: biochemical
Conditions: read-out: IC50 KAT8 (5 nM); enzyme 5 nM; 2-fold serial dilution from 200 μM; NI = no inhibition at 200 μM; mean ± SD of three independent experiments
Procedure: Purified KAT8 was incubated with the relevant inhibitor (1% DMSO final) in a 2-fold serial dilution starting at 200 μM for 20 min at rt. Then, [^3H]Ac-CoA and biotinylated peptide were added to a total assay volume of 50 μL and the reaction mixture was incubated at rt for 4 h. The reaction was stopped, and the mixture was transferred to a 96-well streptavidin scintillant coated FlashPlate (Perkin Elmer) and incubated for 60 min at rt. The FlashPlate was washed with 0.1% Tween-20, and the liquid scintillation counting (MicroBeta Microplate Counter, Perkin Elmer) was employed to measure the radioactive signal. Experiments were performed in biological triplicates. Signal reduction compared to control was plotted (as inhibition percentage) as a function of compound concentration and fitted by nonlinear regression (GraphPad Prism 8.0) finally yielding the IC50 values.

| IC50 [µM] | SMILES |
| --- | --- |
| > 200 | CC1=NN(c2ccc(C(=O)O)cc2)C(=O)/C1=C\c1cc(C(=O)c2cccc(F)c2)c[nH]1 [Compound 9, (Z)-4-(4-((4-(3-Fluorobenzoyl)-1H-pyrrol-2-yl)methylene)-3-methyl-5-oxo-4,5-dihydro-1H-pyrazol-1-yl)benzoic Acid] |
| > 150 | CC1=NN(c2ccc(C(=O)O)cc2)C(=O)/C1=C\c1cc(C(=O)c2cccc(Cl)c2)c[nH]1 [Compound 6, (Z)-4-(4-((4-(3-Chlorobenzoyl)-1H-pyrrol-2-yl)methylene)-3-methyl-5-oxo-4,5-dihydro-1H-pyrazol-1-yl)benzoic Acid] |
| > 200 | CC1=NN(c2ccc(C(=O)O)cc2)C(=O)/C1=C\c1cc(C(=O)c2ccccc2O)c[nH]1 [Compound 12, (Z)-4-(4-((4-(2-Hydroxybenzoyl)-1H-pyrrol-2-yl)methylene)-3-methyl-5-oxo-4,5-dihydro-1H-pyrazol-1-yl)benzoic Acid] |
| > 200 | CC1=NN(c2ccc(C(=O)O)cc2)C(=O)/C1=C\c1cc(C(=O)c2cccc(C)c2)c[nH]1 [Compound 14, (Z)-4-(3-Methyl-4-((4-(3-methylbenzoyl)-1H-pyrrol-2-yl)4ethylene)-5-oxo-4,5-dihydro-1H-pyrazol-1-yl)benzoic Acid] |
| > 200 | CC1=NN(c2ccc(C(=O)O)cc2)C(=O)/C1=C\c1cc(C(=O)c2ccc(Cl)cc2)c[nH]1 [Compound 7, (Z)-4-(4-((4-(4-Chlorobenzoyl)-1H-pyrrol-2-yl)methylene)-3-methyl-5-oxo-4,5-dihydro-1H-pyrazol-1-yl)benzoic Acid] |
| > 150 | CC1=NN(c2ccc(C(=O)O)cc2)C(=O)/C1=C\c1cc(C(=O)c2ccccc2F)c[nH]1 [Compound 8, (Z)-4-(4-((4-(2-Fluorobenzoyl)-1H-pyrrol-2-yl)methylene)-3-methyl-5-oxo-4,5-dihydro-1H-pyrazol-1-yl)benzoic Acid] |

More lines, now with the values behind:

| SMILES | IC50 [µM] |
| --- | --- |
| CC1=NN(c2ccc(S(N)(=O)=O)cc2)C(=O)/C1=C\c1ccc[nH]1 [Compound 43, (Z)-4-(4-((1H-Pyrrol-2-yl)methylene)-3-methyl-5-oxo-4,5-dihydro-1H-pyrazol-1-yl)benzenesulfonamide] | 59.4 ± 3.7 |
| CC1=NN(c2ccc(C(=O)NCCCN3CCCC3)cc2)C(=O)/C1=C\c1ccc[nH]1 [Compound 41, (Z)-4-(4-((1H-Pyrrol-2-yl)methylene)-3-methyl-5-oxo-4,5-dihydro-1H-pyrazol-1-yl)-N-(3-(pyrrolidin-1-yl)propyl)benzamide] | > 200 |
| CC1=NN(c2ccccc2)C(=O)/C1=C\c1cc(C(=O)c2ccccc2)c[nH]1 [Compound 16, (Z)-4-((4-Benzoyl-1H-pyrrol-2-yl)methylene)-5-methyl-2-phenyl-2,4-dihydro-3H-pyrazol-3-one] | > 200 |
| CC1=NN(c2ccc(C(=O)O)cc2)C(=O)/C1=C\c1cc(C(=O)c2ccc([N+](=O)[O-])cc2)c[nH]1 [Compound 4, (Z)-4-(3-Methyl-4-((4-(4-nitrobenzoyl)-1H-pyrrol-2-yl)methylene)-5-oxo-4,5-dihydro-1H-pyrazol-1-yl)benzoic Acid] | > 200 |
| CC1=NN(c2ccccc2)C(=O)/C1=C\c1cc(C(=O)c2ccccc2[N+](=O)[O-])c[nH]1 [Compound 17, (Z)-5-Methyl-4-((4-(2-nitrobenzoyl)-1H-pyrrol-2-yl)methylene)-2-phenyl-2,4-dihydro-3H-pyrazol-3-one] | > 200 |
| CC1=NN(c2ccc(C(=O)NCCO)cc2)C(=O)/C1=C\c1ccc[nH]1 [Compound 40, (Z)-4-(4-((1H-Pyrrol-2-yl)methylene)-3-methyl-5-oxo-4,5-dihydro-1H-pyrazol-1-yl)-N-(2-hydroxyethyl)benzamide] | 52.2 ± 3.2 |
| CC1=NN(c2ccc(S(=O)(=O)O)cc2)C(=O)/C1=C\c1ccc[nH]1 [Compound 42, (Z)-4-(4-((1H-Pyrrol-2-yl)methylene)-3-methyl-5-oxo-4,5-dihydro-1H-pyrazol-1-yl)benzenesulfonic Acid] | 54.7 ± 4 |
